Here are results for nine compounds from article PMC7931627 (ACS Central Science, 2021).

The structures appear in SMILES notation.

Data set [1] has as its target SARS-CoV-2 M^pro (Severe acute respiratory syndrome coronavirus 2, UniProt P0DTD1). Briefly: biochemical. Particulars: for IC50: IC50, inhibition of SARS-CoV-2 Mpro, kinetic assay, 100 nM Mpro, triplicate, footnote a: fluorescence of compound interfered with assay. The class given is biochemical.
In data set [2] the test system is noninfectious SARS-CoV-2 replicon. The class given is cell-based. The note with it: 5 in combination with remdesivir, MacSynergy II.
Data set [3] has as its system infectious SARS-CoV-2. Briefly: MTT antiviral assay: protection against viral cytopathic effect in Vero E6 cells. The class given is cell-based.
Data set [4] concerns infectious SARS-CoV-2. The class given is cell-based.
Data set [5] concerns Vero E6 cells. The note with it: MTT, no virus.
Data set [6] relates to normal human bronchial epithelial cells (NHBE). The note with it: MTT.

As to `N#Cc1ccccc1-c1cc(-c2cccc(Cl)c2)c(=O)n(-c2cccnc2)c1` [Compound 2], in data set [1], the IC50 (usually the concentration that gives 50% inhibition) came out at 9.99 ± 2.5 µM.
Still for that read-out and setting: to `O=c1[nH]cc(-c2cc(-c3cccc(Cl)c3)c(=O)n(-c3cccnc3)c2)c(=O)[nH]1` [Compound 3] belongs 6.38 ± 1.21 µM.
Regarding `N#Cc1ccccc1-c1cc(-c2cc(Cl)cc(Cl)c2)c(=O)n(-c2cccnc2)c1` [Compound 4], the “factor of enhancement in inhibitory activity” value in data set [1] (4 vs 2, addition of second chlorine) is around 2. In data set [1], this compound returned a half-maximal inhibitory concentration (IC50) of 4.02 ± 1.36 µM.
Take `CCCOc1cc(Cl)cc(-c2cc(-c3ccccc3C#N)cn(-c3cccnc3)c2=O)c1` [Compound 5]: in data set [1] (5 over 4), the “factor of improvement in potency” value is on record as “ca. 30”. In data set [2], the antagonism volume worked out at 0 μM^2% and the mean synergy volume is 30.8 μM^2%.
On to `O=c1[nH]cc(-c2cc(-c3cc(Cl)cc(OCc4ccccc4)c3)c(=O)n(-c3cccnc3)c2)c(=O)[nH]1` [Compound 14], for which the “EC50 MTT” value in data set [3] is “not in the MTT assay”. Besides, the “EC50 Plaque” value in data set [4] is “antiviral activity was found”.
Regarding `O=c1[nH]cc(-c2cc(-c3cc(Cl)cc(OCc4ccccc4Cl)c3)c(=O)n(-c3cccnc3)c2)c(=O)[nH]1` [Compound 21], the “EC50 MTT” value in data set [3] is recorded as “lacked antiviral activity”. Moreover, the “EC50 Plaque” value in data set [4] is on record as “showed activity”.
The matching figures for `O=c1[nH]cc(-c2cc(-c3cc(Cl)c(F)c(OCc4ccccc4Cl)c3)c(=O)n(-c3cccnc3)c2)c(=O)[nH]1` [Compound 23]: “lacked antiviral activity” and “showed activity”.
`O=c1[nH]cc(-c2cc(-c3cc(Cl)cc(OCC4CC4)c3)c(=O)n(-c3cccnc3)c2)c(=O)[nH]1` [Compound 24]: the “fold boost in potency” value in data set [1] (24 vs 11, uracil series) was 3.
With `N#Cc1ccccc1-c1cc(-c2cc(Cl)cc(OCC3CC3)c2)c(=O)n(-c2cccnc2)c1` [Compound 26], the “CC50 Vero E6” value in data set [5] is recorded as “no cytotoxicity”. For the same compound, the “CC50 NHBE” value in data set [6] was “no cytotoxicity”.
